Test results taken from US12630547B2, “RAS protein degraders, pharmaceutical compositions thereof, and their therapeutic applications” (BioTheryX, Inc., priority 2019, dated 2026).

How the values were obtained:
Format in all cases: cell-based
[1] = tested on: H23 cells; assay: Cell viability assay (CELLTITER-GLO), H23 cells; conditions: Table 4; 3 days
How it was run: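 H23 cells in RPMI 1640 with 10% FBS, 4,000 cells/well, exposed to compound or DMSO for 3 days at 37° C, 5% CO2. Viability read by CellTiter-Glo luminescence after 10 min. IC50 reported in potency bins.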

[2] = tested on: H358 cells; assay: Cell viability assay (CELLTITER-GLO), H358 cells; conditions: Table 4; 3 days
How it was run: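 H358 cells (RPMI 1640, 10% FBS), 4,000 per well, exposed to compound for 3 days at 37 °C, 5% CO2; viability by CellTiter-Glo luminescence. Single-dose viability as % DMSO at 10 or 1 μM, binned A (<10%) to D (≥50%); IC50 binned A (≤1 μM) to D (>10 μM).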

[3] = tested on: MOLM-13 cells; assay: Cell viability assay (CELLTITER-GLO), MOLM-13 cells; conditions: Homo sapiens, MOLM-13, 72 h; Table 2; compound at 10 μM, 3 days; read-out: Effect on MOLM-13 cell viability (% DMSO)
How it was run: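 MV-4-11 and MOLM-13 cells in RPMI 1640/10% FBS were seeded at 4,000 cells/well and exposed to compound (10 μM or 1 μM) or DMSO for 3 days at 37 °C, 5% CO2. CellTiter-Glo luminescence gave viability as % DMSO, binned into ranges A (<10%) through D (≥50%).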

| SMILES | Inhibition of H23 cells, IC50 (class) [1] | Inhibition of H358 cells, IC50 (class) [2] | viability at 10 µM [3] |
| --- | --- | --- | --- |
| C=CC(=O)N1CCN(c2nc(OCCCCCCCN3CCC(c4cc(F)cc5c4CN(C4CCC(=O)NC4=O)C5=O)CC3)nc3c2CCN(c2cc(O)cc4ccccc24)C3)CC1 (stereo not drawn) [Compound 75, 3-(4-(1-(7-((4-(4-Acryloylpiperazin-1-yl)-7-(3-hydroxynaphthalen-1-yl)-5,6,7,8-tetrahydropyrido[3,4-d]pyrimidin-2-yl)oxy)heptyl)piperidin-4-yl)-6-fluoro-1-oxoisoindolin-2-yl)piperidine-2,6-dione] | B′ | C′ | 25 to 50% |
| C=CC(=O)N1CCN(c2ncnc3c(F)c(-c4c(F)cccc4OCCCCCCCCCCC(=O)N[C@H](C(=O)N4C[C@H](O)C[C@H]4C(=O)NCc4ccc(-c5scnc5C)cc4)C(C)(C)C)c(Cl)cc23)CC1 [Compound 76, (2S,4R)-1-((2S)-2-(11-(2-(4-(4-Acryloylpiperazin-1-yl)-6-chloro-8-fluoroquinazolin-7-yl)-3-fluorophenoxy)undecanamido)-3,3-dimethylbutanoyl)-4-hydroxy-N-(4-(4-methylthiazol-5-yl)benzyl)pyrrolidine-2-carboxamide] | B′ | B′ | < 10% |
| CCC(=O)N1CCN(c2ncnc3c(F)c(-c4c(F)cccc4OCCCCCCCCCCC(=O)N[C@H](C(=O)N4C[C@H](O)C[C@H]4C(=O)NCc4ccc(-c5scnc5C)cc4)C(C)(C)C)c(Cl)cc23)CC1 [Compound 77, (2S,4R)-1-((2S)-2-(11-(2-(6-Chloro-8-fluoro-4-(4-propionylpiperazin-1-yl)quinazolin-7-yl)-3-fluorophenoxy)undecanamido)-3,3-dimethylbutanoyl)-4-hydroxy-N-(4-(4-methylthiazol-5-yl)benzyl)pyrrolidine-2-carboxamide] | D′ | C′ | ≥ 50% |
| CCC(=O)N1CCN(c2ncnc3c(F)c(-c4c(F)cccc4OCCCCCCC(=O)N[C@H](C(=O)N4C[C@H](O)C[C@H]4C(=O)NCc4ccc(-c5scnc5C)cc4)C(C)(C)C)c(Cl)cc23)CC1 [Compound 78, (2S,4R)-1-((2S)-2-(7-(2-(6-Chloro-8-fluoro-4-(4-propionylpiperazin-1-yl)quinazolin-7-yl)-3-fluorophenoxy)heptanamido)-3,3-dimethylbutanoyl)-4-hydroxy-N-(4-(4-methylthiazol-5-yl)benzyl)pyrrolidine-2-carboxamide] | C′ | B′ | < 10% |
| O=C1CCC(N2Cc3c(cc(F)cc3C3CCN(CCCCCCCOc4cccc(F)c4-c4c(Cl)cc5c(N6CCN(C(=O)C7CCNC7)CC6)ncnc5c4F)CC3)C2=O)C(=O)N1 (stereo not drawn) [Compound 79, 3-(4-(1-(7-(2-(6-Chloro-8-fluoro-4-(4-(pyrrolidine-3-carbonyl)piperazin-1-yl)quinazolin-7-yl)-3-fluorophenoxy)heptyl)piperidin-4-yl)-6-fluoro-1-oxoisoindolin-2-yl)piperidine-2,6-dione] | B′ | B′ | < 10% |
| CC(C)/C=C(\C#N)C(=O)N1CCN(c2ncnc3c(F)c(-c4c(F)cccc4OCCCCCCCN4CCC(c5cc(F)cc6c5CN(C5CCC(=O)NC5=O)C6=O)CC4)c(Cl)cc23)CC1 (stereo not drawn) [Compound 80, (E)-2-(4-(6-Chloro-7-(2-((7-(4-(2-(2,6-dioxopiperidin-3-yl)-6-fluoro-1-oxoisoindolin-4-yl)piperidin-1-yl)heptyl)oxy)-6-fluorophenyl)-8-fluoroquinazolin-4-yl)piperazine-1-carbonyl)-4-methylpent-2-enenitrile] | B′ | B′ | < 10% |
| O=C1CCC(N2Cc3c(cc(F)cc3C3CCN(CCCCCCCOc4cccc(F)c4-c4c(Cl)cc5c(N6CCN(C(=O)C7COC7)CC6)ncnc5c4F)CC3)C2=O)C(=O)N1 (stereo not drawn) [Compound 81, 3-(4-(1-(7-(2-(6-Chloro-8-fluoro-4-(4-(oxetane-3-carbonyl)piperazin-1-yl)quinazolin-7-yl)-3-fluorophenoxy)heptyl)piperidin-4-yl)-6-fluoro-1-oxoisoindolin-2-yl)piperidine-2,6-dione] | C′ | C′ | ≥ 50% |
| C=C(F)C(=O)N1CCN(c2ncnc3c(F)c(-c4c(F)cccc4OCCCCCCCN4CCC(c5cc(F)cc6c5CN(C5CCC(=O)NC5=O)C6=O)CC4)c(Cl)cc23)CC1 (stereo not drawn) [Compound 82, 3-(4-(1-(7-(2-(6-Chloro-8-fluoro-4-(4-(2-fluoroacryloyl)piperazin-1-yl)quinazolin-7-yl)-3-fluorophenoxy)heptyl)piperidin-4-yl)-6-fluoro-1-oxoisoindolin-2-yl)piperidine-2,6-dione] | B′ | B′ | < 10% |
| NC(=O)N1CCN(c2ncnc3c(F)c(-c4c(F)cccc4OCCCCCCCN4CCC(c5cc(F)cc6c5CN(C5CCC(=O)NC5=O)C6=O)CC4)c(Cl)cc23)CC1 (stereo not drawn) [Compound 83, 4-(6-Chloro-7-(2-((7-(4-(2-(2,6-dioxopiperidin-3-yl)-6-fluoro-1-oxoisoindolin-4-yl)piperidin-1-yl)heptyl)oxy)-6-fluorophenyl)-8-fluoroquinazolin-4-yl)piperazine-1-carboxamide] | B′ | B′ | < 10% |
| CCC(=O)N1CCN(c2ncnc3c(F)c(-c4c(F)cccc4OCCC4CCC(CCN5CCC(c6cc(F)cc7c6CN(C6CCC(=O)NC6=O)C7=O)CC5)CC4)c(Cl)cc23)CC1 (stereo not drawn) [Compound 84, 3-(4-(1-(2-(4-(2-(2-(6-Chloro-8-fluoro-4-(4-propionylpiperazin-1-yl)quinazolin-7-yl)-3-fluorophenoxy)ethyl)cyclohexyl)ethyl)piperidin-4-yl)-6-fluoro-1-oxoisoindolin-2-yl)piperidine-2,6-dione] | B′ | B′ | < 10% |
| CCC(=O)N1CCN(c2ncnc3c(F)c(-c4c(F)cccc4OCCCCCCCN4CCC(c5cc(F)cc6c5CN(C5CCC(=O)NC5=O)C6=O)CC4)c(Cl)cc23)[C@@H](C)C1 (stereo partly drawn) [Compound 85, 3-(4-(1-(7-(2-(6-Chloro-8-fluoro-4-((S)-2-methyl-4-propionylpiperazin-1-yl)quinazolin-7-yl)-3-fluorophenoxy)heptyl)piperidin-4-yl)-6-fluoro-1-oxoisoindolin-2-yl)piperidine-2,6-dione] | B′ | B′ | < 10% |
| CCC(=O)N1CCN(c2ncnc3c(F)c(-c4c(F)cccc4OCCCCCCCN4CCCC(c5cc(F)cc6c5CN(C5CCC(=O)NC5=O)C6=O)C4)c(Cl)cc23)CC1 (stereo not drawn) [Compound 87, 3-(4-(1-(7-(2-(6-Chloro-8-fluoro-4-(4-propionylpiperazin-1-yl)quinazolin-7-yl)-3-fluorophenoxy)heptyl)piperidin-3-yl)-6-fluoro-1-oxoisoindolin-2-yl)piperidine-2,6-dione] | B′ | B′ | < 10% |
| C=CC(=O)N1CCN(c2nc(OC[C@@H]3CCCN3C)nc3c(F)c(-c4c(F)cccc4OCCCCCCCN4CCC(c5cc(F)cc6c5CN(C5CCC(=O)NC5=O)C6=O)CC4)c(Cl)cc23)CC1 (stereo partly drawn) [Compound 88, 3-(4-(1-(7-(2-(4-(4-Acryloylpiperazin-1-yl)-6-chloro-8-fluoro-2-(((S)-1-methylpyrrolidin-2-yl)methoxy)quinazolin-7-yl)-3-fluorophenoxy)heptyl)piperidin-4-yl)-6-fluoro-1-oxoisoindolin-2-yl)piperidine-2,6-dione] | B′ | A′ | < 10% |
| CCC(=O)N1CCN(c2nc(OC[C@@H]3CCCN3C)nc3c(F)c(-c4c(F)cccc4OCCCCCCCN4CCC(c5cc(F)cc6c5CN(C5CCC(=O)NC5=O)C6=O)CC4)c(Cl)cc23)CC1 (stereo partly drawn) [Compound 89, 3-(4-(1-(7-(2-(6-Chloro-8-fluoro-2-(((S)-1-methylpyrrolidin-2-yl)methoxy)-4-(4-propionylpiperazin-1-yl)quinazolin-7-yl)-3-fluorophenoxy)heptyl)piperidin-4-yl)-6-fluoro-1-oxoisoindolin-2-yl)piperidine-2,6-dione] | B′ | B′ | < 10% |
| C=CC(=O)N1CCN(c2ncnc3c(F)c(-c4cc(OCCCCCCCN5CCC(c6cc(F)cc7c6CN(C6CCC(=O)NC6=O)C7=O)CC5)ccc4F)c(Cl)cc23)CC1 (stereo not drawn) [Compound 90, 3-(4-(1-(7-(3-(4-(4-Acryloylpiperazin-1-yl)-6-chloro-8-fluoroquinazolin-7-yl)-4-fluorophenoxy)heptyl)piperidin-4-yl)-6-fluoro-1-oxoisoindolin-2-yl)piperidine-2,6-dione] | B′ | B′ | < 10% |
